{"source": "patent US20230416243A1", "about": "“Process for Preparing Heterocyclic Methanone Compounds and AZA-Bicyclo Intermediates Thereof” (ACTINOGEN MEDICAL LIMITED, priority 2020, published 2023)", "assay": "Solubility test in water", "format": "physicochemical", "settings": "water at pH 4", "experimental": "A saponification of A4 in aqueous conditions was conducted.", "data": [{"smiles": "O=C(O)c1csc(-c2cn[nH]c2)c1", "note": "[Compound A5]", "values": [{"measurement": "Solubility in water", "value": "soluble"}]}]}
